# From patent publication US7026344B2, “Treating sickle cell disease” (priority 2000, dated 2006)
# What was measured:
# [1] = test system: fetal hemoglobin production in normal erythroid progenitors; assay: Hemoglobin F determination in erythroid progenitors, normal donors; type: cell-based, human
# Procedure: (§1) BFU-E Colony Growth. Mononuclear cells were isolated from the peripheral blood of each patient studied by density gradient centrifugation using Histapaque-1077 (Sigma). Erythroid progenitors were obtained in methylcellulose culture. ZL was added on day 0 at 25, 50, 75, or 100 μM concentrations for 13–14 days at which time the number of BFU-E colonies were counted on an inverted microscope and harvested for hemoglobin determinations.
# Hemoglobin F determination. The erythroid progenitors were collected, washed in PBS then lysed at room temperature in 200 μl of water. The supernatant was split into two tubes, one for total hemoglobin determination and one for hemoglobin F determination. In brief, IgG (10 μl), 1.2 N NaOH (7 μl) and saturated (NH4)2SO4 (70 μl) were added to the hemoglobin F sample. The denatured hemoglobin was pelleted and the supernatant containing hemoglobin F was mixed with 500 μl of tetramethyl benzidine and 500 μl of H2O2 at room temperature then quantitated on a spectrophotometer at 600 nm. The percentage of fetal hemoglobin to total hemoglobin was determined.
# The cytotoxic effect of HU as been proposed as a basic mechanism involved in hemoglobin F induction. […] Utilizing the same protocol, BFU-E colonies from normal donors wee analyzed in the presence of ZL at 0 to 100 μM concentrations. […]
# [2] = test system: activated-PMN mediated SRBC retention/adherence in the isolated-perfused rat lung; assay: SRBC retention/adherence in isolated-perfused lung with PMA-activated PMNs; settings: for SRBC retention/adherence: mean±SE
# Procedure: Isolated perfused lung. Male Sprague-Dawley rats (275–350 g) were anesthetized with Nembutal sodium (25 mg ip), and lungs were removed for extracorporeal perfusion. A tracheostomy was performed that permitted ventilation with a Harvard rodent ventilator (model 683) at 55 breaths/min with a tidal volume of 2.5 ml and 2.0 cmH2O positive end-expiratory pressure. The inspired gas mixture as 95% air-5% CO2 (room air gas). A median stemotomy was performed, heparin sodium (100 IU) was injected in the right ventricle, and caminulas were placed in the pulmonary artery and left ventricle. Heart, lungs, and mediastinal structures were removed en bloc and placed into a humidified chamber. Lungs were perfused by a Gilson Minipuls 2 peristaltic pump at a constant flow of 0.03 ml·g body wt^−1·min^−1. Lungs were perfused with a physiological salt solution (PSS) containing bovine serum albumin (BSA, 66,000 mol.wt). The PSS-BSA perfusate contained (in mM) 119 NaCl, 4.7 KCI, 1.17 MgSO4, 22.5 NaHCO3, 1.18 KH2PO4, 3.2 CaCl2, 5.5 glucose, and 4 g/100 ml BSA. PSS-BSA (100 ml) was perfused through the lungs in a nonrecirculating fashion to remove residual blood cells and plasma. The perfusate was then changed to a PSS-BSA perfusate that contained RBCs from individuals homozygous for sickle cell anemia (Hb SS). The perfusate hematocrit was ˜10%. Pulmonary arterial pressure (Ppa) and pulmonary venous (Ppv) were continuously monitored with Cope pressure transducers (model 041-500-503) and recorded on a Grass polygraph recorder (model 7E). Zone 3 flow conditions (arterial>venous>alveolar pressures) were maintained throughout all experiments.
# Blood collection. During steady-state, blood samples (˜40 ml) were obtained from normal (Hemoglobin A) human volunteers and from individuals with homozygous sickle cell anemia in the sickle cell clinics at the University of South Alabama. Samples were collected in syringes containing heparin and utilized within 48 hours of collection. Individuals having received blood transfusions within 6 wks were excluded from this study. Sickle cell anemia was documented by hemoglobin electrophoresis in each subject.
# RBC isolation and Cr^51 labeling. Each whole blood sample was centrifuged at 4100 rpm for 10 min followed by the removal of the plasma and buffy coat. Packed RBCs were then mixed at a 1:3 dilution with normal saline and washed ×3. With each wash, the RBC suspension was centrifuged for 10 min at 3000 rpm followed by removal of the supernatant. Following the third wash, packed RBCs were resuspended in PBS (1 ml PBS/1 ml packed RBCs) and incubated with 100 μCi Cr^51 for 60 min in a shaker water bath at 37° C. Following incubation, the Cr^51 labeled RBCs were washed ×1 with normal saline and resuspended in PSS-BSA to obtain a hematocrit of ˜10%.
# Neutrophil (PMN) isolations. Heparinized whole blood (20 ml) from individuals with homozygous sickle cell anemia was diluted 1:1 with normal saline. Dextran 500 was added to the 1:1 mix at ¼ the volume of the 1:1 mix. This was allowed to incubate for 45 min at 37° C. The supernatant (contains PMNs) was aspirated into a 50 ml centrifuge tube and underlayered with 10 ml histopague 1077. This was centrifuged at 1250 rpm for 30 min. The supernatant is aspirated and discarded leaving the PMN pellet. Sterile H2O, 3 ml, is added to the PMN pellet and agitated for 3 sec to lyse any residual RBCs. Phosphate buffered saline, 45 ml, is added immediately thereafter to stop the reaction. This is centrifuged at 1250 rpm for 10 min. The supernatant is aspirated and discarded. This process of RBC lysis followed by PBS is repeated until the PMN pellet is without visual evidence of RBC contamination. The PMN pellet is suspended in 1 ml of sterile Hank's balanced salt solution. A total PMN count is obtained using the Cell-DYN 900 Coulter Counter. PMN viability is 95–99% as assessed using trypan blue.
# RBC Retention. […]
# [3] = test system: erythroid progenitors (BFU-E colonies) from normal donors; assay: BFU-E colony growth in methylcellulose culture, normal donors; type: cell-based, human
# Procedure: as §1
# The cytotoxic effect of HU as been proposed as a basic mechanism involved in hemoglobin F induction. In the absence of this characteristic for ZL, whether γ gene expression would be, induced in erythroid progenitors obtained from normal donors was tested. Utilizing the same protocol, BFU-E colonies from normal donors wee analyzed in the presence of ZL at 0 to 100 μM concentrations. In normal erythroid progenitors, a decrease in BFU-E colony number from 94±30.6 to 10.1±2.4 (FIG. 3A) and an increase in hemoglobin F from 1.4±0.05% to […] (FIG. 3B) was observed. This pattern was similar to that obtained for Hb SS progenitors. Of note is the lower average BFU-E colony number for hemoglobin A progenitors as compared with hemoglobin S. This probably reflects the absence of hemolysis and increased RBC production in normals as compared to sickle cell patients. This represents a 9.3-fold decrease and a 4.3-fold increase in BFU-E and hemoglobin F, respectively.
# [4] = test system: fetal hemoglobin production in primary erythroid progenitors from Hb SS patients; settings: HU 100 μM, Hb SS patients of the HU cohort (Yang et al.); cited from earlier work
# [5] = test system: primary erythroid progenitors (BFU-E colonies) from Hb SS patients; settings: HU 100 μM, Hb SS patients of the HU cohort (Yang et al.); cited from earlier work
Compound,fold increase in hemoglobin F ([1]; ZL 0 vs 100 μM),hemoglobin F ([1]; ZL 100 μM),"decrease in SRBC retention/adherence ([2]; ZL 2.5 μM pretreated A-PMN vs SRBC+A-PMN control (ethanol diluent), 30 min perfusion)",fold decrease in BFU-E ([3]; ZL 0 vs 100 μM),BFU-E colony number ([3]; ZL 100 μM),HbF [4],SRBC retention/adherence ([2]; HU 50 μM pretreated A-PMN),SRBC retention/adherence ([2]; HU 100 μM pretreated A-PMN),SRBC retention/adherence ([2]; HU 1000 μM pretreated A-PMN),decrease in retained SRBCs ([2]; HU 1000 μM pretreated PMNs vs control (H2O diluent)),attenuation of activated-PMN mediated enhanced SRBC retention/adherence ([2]; HU 50 and 100 μM),BFU-E [5]
"CC(c1cc2ccccc2s1)N(O)C(N)=O (racemic) [ZL, (±)-1-(1-Benzo[b]thien-2-ylethyl)-1-hydroxyurea]",4.3 fold,6.0%,~42%,9.3 fold,10.1±2.4,–,–,–,–,–,–,–
"NC(=O)NO [HU, Hydroxyurea]",–,–,–,–,–,19.4%,4.2±0.4 ×10^8 SRBC/gram of lung,4.3±0.4 ×10^8 SRBC/gram of lung,3.9±0.2 ×10^8 SRBC/gram of lung,~25%,did not attenuate,7.2
